Legend:
Assay type in all cases: in vivo
[1] = tested on: Poa annua; assay: Herbicidal pre-emergence action (Method B) against POAAN; conditions: 504 h, scored visually after about 3 weeks vs untreated controls
Excerpt: (§1) Method B: Herbicidal Pre-Emergence Action Seeds of mono- and dicotyledonous weed plants are placed in plastic pots in sandy loam soil (doubly sown with one species each of mono- or dicotyledonous weed plants per pot) and covered with soil. The compounds of the invention, formulated in the form of wettable powders (WP) or as emulsion concentrates (EC), are then applied onto the surface of the covering soil as aqueous suspension or emulsion with addition of 0.5% additive at a water application rate equivalent to 600 liters per hectare. After the treatment, the pots are placed in a greenhouse and kept under good growth conditions for the trial plants. After about 3 weeks, the effect of the preparations is scored visually in comparison with untreated controls as percentages. For example, 100% action=the plants have died, 0% action=like control plants.

[2] = tested on: Echinochloa crus-galli; assay: Herbicidal post-emergence action (Method A) against ECHCG; conditions: rated visually after about 3 weeks vs untreated controls; for pest or weed control at 1280 g/ha: Echinochloa crus-galli, post-emergence, 504 h
Description: (§2) Method A: Herbicidal Post-Emergence Action Seeds of mono- and dicotyledonous weed plants are placed in plastic pots in sandy loam soil (twin sowing with one species each of mono- or dicotyledonous weed plants per pot), covered with soil and cultivated in a greenhouse under controlled growth conditions. 2 to 3 weeks after sowing, the test plants are treated at the one-leaf stage. The compounds of the invention, formulated in the form of wettable powders (WP) or as emulsion concentrates (EC), are applied to the green parts of the plants as aqueous suspension or emulsion with addition of 0.5% additive at a water application rate equivalent to 600 liters per hectare. After the test plants have been kept in the greenhouse under optimum growth conditions for about 3 weeks, the activity of the preparations is rated visually in comparison to untreated controls. For example, 100% activity=the plants have died, 0% activity=like control plants.

[3] = tested on: Poa annua; assay: Herbicidal post-emergence action (Method A) against POAAN; conditions: 504 h, rated visually after about 3 weeks vs untreated controls; for pest or weed control at 1280 g/ha: read-out: Post-emergence action at 1280 g/ha against POANN; for pest or weed control at 320 g/ha: read-out: Post-emergence action at 320 g/ha against POANN
Description: as §2

[4] = tested on: Echinochloa crus-galli; assay: Herbicidal pre-emergence action (Method B) against ECHCG; conditions: 504 h, scored visually after about 3 weeks vs untreated controls
Excerpt: as §1

[5] = tested on: Lolium rigidum; assay: Herbicidal pre-emergence action (Method B) against LOLRI; conditions: 504 h, scored visually after about 3 weeks vs untreated controls
Excerpt: as §1

[6] = tested on: Stellaria media; assay: Herbicidal pre-emergence action (Method B) against STEME; conditions: 504 h; for pest or weed control at 320 g/ha: dosage 320 g/ha; for pest or weed control at 1280 g/ha: dosage 1280 g/ha
Excerpt: as §1

[7] = tested on: Matricaria inodora; assay: Herbicidal pre-emergence action (Method B) against MATIN; conditions: Tripleurospermum inodorum, 504 h, scored visually after about 3 weeks vs untreated controls
Excerpt: as §1

[8] = tested on: Lolium rigidum; assay: Herbicidal post-emergence action (Method A) against LOLRI; conditions: rated visually after about 3 weeks vs untreated controls; for pest or weed control at 1280 g/ha: Lolium rigidum, post-emergence, 504 h
Description: as §2

[9] = tested on: Matricaria inodora; assay: Herbicidal post-emergence action (Method A) against MATIN; conditions: rated visually after about 3 weeks vs untreated controls
Description: as §2

[10] = tested on: Stellaria media; assay: Herbicidal post-emergence action (Method A) against STEME; conditions: 504 h, rated visually after about 3 weeks vs untreated controls
Description: as §2

[11] = tested on: harmful plants; assay: Herbicidal post-emergence action (Method A), summary statement; conditions: summary of tables A1-A11
Description: as §2

[12] = tested on: Amaranthus retroflexus; assay: Herbicidal post-emergence action (Method A) against AMARE; conditions: rated visually after about 3 weeks vs untreated controls
Description: as §2

CN(NC(=O)c1nc(C2CC2)ncc1-c1ccccc1Cl)C(=O)OC(C)(C)C [Example I-548, tert-butyl 2-{[5-(2-chlorophenyl)-2-cyclopropylpyrimidin-4-yl]carbonyl}-1-methylhydrazinecarboxylate]
90%: pest or weed control at 1280 g/ha [2] | pest or weed control at 1280 g/ha [3] | pest or weed control at 320 g/ha [4] | pest or weed control at 1280 g/ha [5]
100%: pest or weed control at 320 g/ha [1] | pest or weed control at 1280 g/ha [1] | pest or weed control at 1280 g/ha [4] | pest or weed control at 320 g/ha [6] | pest or weed control at 1280 g/ha [6]

CC(=O)N(NC(=O)c1nc(C2CC2)ncc1-c1ccccc1Cl)c1ccccn1 [Example I-513, N′-acetyl-5-(2-chlorophenyl)-2-cyclopropyl-N′-(pyridin-2-yl)pyrimidine-4-carbohydrazide]
100%: pest or weed control at 1280 g/ha [7] | pest or weed control at 320 g/ha [1] | pest or weed control at 1280 g/ha [1] | Post-emergence action at 320 g/ha against ECHCG [2] | pest or weed control at 1280 g/ha [2] | pest or weed control at 1280 g/ha [8] | pest or weed control at 320 g/ha [3] | pest or weed control at 1280 g/ha [3] | pest or weed control at 1280 g/ha [4] | pest or weed control at 320 g/ha [6] | pest or weed control at 1280 g/ha [6] | pest or weed control at 320 g/ha [10] | pest or weed control at 1280 g/ha [10]
90%: Post-emergence action at 1280 g/ha against MATIN [9] | pest or weed control at 1280 g/ha [5]

CN(N)C(=O)c1nc(C2CC2)ncc1-c1ccccc1Cl [Example I-500, 5-(2-chlorophenyl)-2-cyclopropyl-N-methylpyrimidine-4-carbohydrazide]
100%: pest or weed control at 1280 g/ha [7] | pest or weed control at 320 g/ha [1] | pest or weed control at 1280 g/ha [1] | pest or weed control at 320 g/ha [3] | pest or weed control at 1280 g/ha [3] | pest or weed control at 1280 g/ha [4] | pest or weed control at 1280 g/ha [5] | pest or weed control at 320 g/ha [6] | pest or weed control at 1280 g/ha [6] | pest or weed control at 320 g/ha [10] | pest or weed control at 1280 g/ha [10] | Post-emergence action at 1280 g/ha against AMARE [12]
good herbicidal efficacy: herbicidal efficacy against harmful plants in the case of post-emergence treatment [11]
90%: pest or weed control at 1280 g/ha [8] | Post-emergence action at 320 g/ha against MATIN ([9]; 320 g/ha) | Post-emergence action at 1280 g/ha against MATIN [9] | pest or weed control at 320 g/ha [4] | pest or weed control at 320 g/ha [5]

CN(C)NC(=O)c1nc(C2CC2)ncc1-c1ccccc1Cl [Example I-501, 5-(2-chlorophenyl)-2-cyclopropyl-N′,N′-dimethylpyrimidine-4-carbohydrazide]
90%: Post-emergence action at 1280 g/ha against MATIN [9]
100%: pest or weed control at 320 g/ha ([7]; 320 g/ha) | pest or weed control at 1280 g/ha [7] | pest or weed control at 320 g/ha [1] | pest or weed control at 1280 g/ha [1] | Post-emergence action at 320 g/ha against ECHCG [2] | pest or weed control at 1280 g/ha [2] | Post-emergence action at 320 g/ha against LOLRI ([8]; 320 g/ha) | pest or weed control at 1280 g/ha [8] | pest or weed control at 320 g/ha [3] | pest or weed control at 1280 g/ha [3] | pest or weed control at 320 g/ha [4] | pest or weed control at 1280 g/ha [4] | pest or weed control at 320 g/ha [5] | pest or weed control at 1280 g/ha [5] | pest or weed control at 320 g/ha [6] | pest or weed control at 1280 g/ha [6] | pest or weed control at 320 g/ha [10] | pest or weed control at 1280 g/ha [10] | Post-emergence action at 1280 g/ha against AMARE [12]

— patent US20220033363A1, “HERBICIDALLY ACTIVE SUBSTITUTED PHENYLPYRIMIDINE HYDRAZIDES” (Bayer Aktiengesellschaft, priority 2018, published 2022)
